From ChEMBL document CHEMBL3616386, “3-Propionyl-thiazolidine-4-carboxylic acid ethyl esters: a family of antiproliferative thiazolidines” (Medchemcomm, 2015)

Legend:
[1] = Cytotoxicity against human HuH7 cells assessed as inhibition of cell proliferation by sulforhodamine B assay; type: functional, cell-based; conditions: Huh-7
[2] = Cytotoxicity against human MV cells assessed as inhibition of cell proliferation by sulforhodamine B assay; type: functional, cell-based

C#CC(=O)N1C(c2cccc(F)c2)SC[C@@H]1C(=O)OCC (mixture of isomers)
IC50 [1]: 1400 nM
IC50 [2]: 1700 nM

C#CC(=O)N1C(C(CC)CCCC)SC[C@@H]1C(=O)OCC (mixture of isomers)
IC50 [1]: 1700 nM
IC50 [2]: 1600 nM

C#CC(=O)N1C(CCCCC)SC[C@@H]1C(=O)OCC (mixture of isomers)
IC50 [1]: 1800 nM
IC50 [2]: 2000 nM

C#CC(=O)N1C(c2ccccc2F)SC[C@@H]1C(=O)OCC (mixture of isomers)
IC50 [1]: 1700 nM
IC50 [2]: 1700 nM

C#CC(=O)N1C(C(C)CCC)SC[C@@H]1C(=O)OCC (mixture of isomers)
IC50 [1]: 600 nM
IC50 [2]: 500 nM

C#CC(=O)N1C(c2ccccc2)SC[C@@H]1C(=O)OCC (some centres not stated)
IC50 [1]: 5300 nM
IC50 [2]: 400 nM

C#CC(=O)N1C(c2ccc(OC)cc2)SC[C@@H]1C(=O)OCC (mixture of isomers)
IC50 [1]: 1400 nM
IC50 [2]: 700 nM

C#CC(=O)N1C(CC(C)CC(C)(C)C)SC[C@@H]1C(=O)OCC (mixture of isomers)
IC50 [1]: 1600 nM
IC50 [2]: 1100 nM

C#CC(=O)N1C(C(C)(C)C)SC[C@@H]1C(=O)OCC (mixture of isomers)
IC50 [1]: 800 nM
IC50 [2]: 900 nM

C#CC(=O)N1C(c2ccc(F)cc2)SC[C@@H]1C(=O)OCC (mixture of isomers)
IC50 [1]: 700 nM
IC50 [2]: 400 nM

C#CC(=O)N1C(c2ccc(C#N)cc2)SC[C@@H]1C(=O)OCC (mixture of isomers)
IC50 [1]: 2600 nM
IC50 [2]: 2400 nM

CC[C@@]1(O)C(=O)OCc2c1cc1n(c2=O)Cc2cc3ccccc3nc2-1 [CAMPTOTHECIN]
IC50 [1]: 100 nM
IC50 [2]: < 1000 nM

O=c1[nH]cc(F)c(=O)[nH]1 [FLUOROURACIL]
IC50 [2]: 10000 nM

C#CC(=O)N1C(CCCC)SC[C@@H]1C(=O)OCC (mixture of isomers)
IC50 [1]: 500 nM
IC50 [2]: 400 nM
